Laboratory results from ChEMBL document CHEMBL4715913, “Discovery of benzo[f]pyrido[4,3-b][1,4]oxazepin-10-one derivatives as orally available bromodomain and extra-terminal domain (BET) inhibitors with efficacy in an in vivo psoriatic animal model” (Bioorg Med Chem, 2021).
The source made the active and inactive calls. The rule behind the calls is not given here.

Assays:
[1] = biological target: T1, Bromodomain-containing protein 4 (Homo sapiens, UniProt O60885); test: Inhibition of BRD4-BD1 (unknown origin) by TR-FRET assay
[2] = test system: PBMC; test: Inhibition of IL-6 production in LPS-induced human PBMC preincubated for 1 hr followed by LPS-stimulation and measured after 20 hrs by magnetic beads technique based assay; assay type: functional, tissue-based; conditions: time 21.0 hrs
[3] = biological target: Mitogen-activated protein kinase 7 (Homo sapiens, UniProt Q13164); test: Inhibition of recombinant human ERK5 using myelin basic protein as substrate by [gamm33P]ATP based HotSpot radiometric assay
[4] = biological target: T1, Bromodomain-containing protein 4; test: Inhibition of BRD4 in human PBMC assessed as reduction in LPS-induced TNFalpha secretion preincubated for 1 hr followed by LPS-stimulation and measured after 20 hrs by magnetic beads technique based assay
[5] = Stability of compound in human liver microsomes assessed as parent compound remaining after 1 hr
[6] = biological target: Voltage-gated inwardly rectifying potassium channel KCNH2 (Homo sapiens, UniProt Q12809); test: Inhibition of human ERG stably expressed in CHO cells at holding potential of -80 mV incubated for 12 mins
[7] = test system: PBMC; test: Inhibition of MCP-1 production in LPS-induced human PBMC preincubated for 1 hr followed by LPS-stimulation and measured after 20 hrs by magnetic beads technique based assay; assay type: functional, tissue-based; conditions: time 21.0 hrs
[8] = biological target: T2, Bromodomain testis-specific protein (Homo sapiens, UniProt Q58F21); test: Binding affinity to human partial length BRDT-BD1 (N21 to E137 residues) expressed in bacterial expression system by BROMOscan method
[9] = biological target: T2, Bromodomain testis-specific protein; test: Binding affinity to human partial length BRDT-BD2 (K250 to E382 residues) expressed in bacterial expression system by BROMOscan method
[10] = biological target: CREB-binding protein (Homo sapiens, UniProt Q92793); test: Binding affinity to human partial length CREBBP (R1081 to G1197 residues) expressed in bacterial expression system by BROMOscan method
[11] = Toxicity in imiquimod-induced Harlan Balb/c mouse model of psoriasis assessed as effect on body weight at 10 mg/kg, po BID for 7 days; assay type: organism-based; conditions: in vivo, 168 h, time 7 day
[12] = test system: Mus musculus; test: Protection against imiquimod-induced Harlan Balb/c mouse model of psoriasis assessed as decrease in ear thickness at 10 mg/kg, po administered BID for 7 days measured on day 8 by dial gauge micrometer analysis; assay type: functional, organism-based; conditions: time 7.0 day

Sequence of Voltage-gated inwardly rectifying potassium channel KCNH2 (Q12809 whole entry): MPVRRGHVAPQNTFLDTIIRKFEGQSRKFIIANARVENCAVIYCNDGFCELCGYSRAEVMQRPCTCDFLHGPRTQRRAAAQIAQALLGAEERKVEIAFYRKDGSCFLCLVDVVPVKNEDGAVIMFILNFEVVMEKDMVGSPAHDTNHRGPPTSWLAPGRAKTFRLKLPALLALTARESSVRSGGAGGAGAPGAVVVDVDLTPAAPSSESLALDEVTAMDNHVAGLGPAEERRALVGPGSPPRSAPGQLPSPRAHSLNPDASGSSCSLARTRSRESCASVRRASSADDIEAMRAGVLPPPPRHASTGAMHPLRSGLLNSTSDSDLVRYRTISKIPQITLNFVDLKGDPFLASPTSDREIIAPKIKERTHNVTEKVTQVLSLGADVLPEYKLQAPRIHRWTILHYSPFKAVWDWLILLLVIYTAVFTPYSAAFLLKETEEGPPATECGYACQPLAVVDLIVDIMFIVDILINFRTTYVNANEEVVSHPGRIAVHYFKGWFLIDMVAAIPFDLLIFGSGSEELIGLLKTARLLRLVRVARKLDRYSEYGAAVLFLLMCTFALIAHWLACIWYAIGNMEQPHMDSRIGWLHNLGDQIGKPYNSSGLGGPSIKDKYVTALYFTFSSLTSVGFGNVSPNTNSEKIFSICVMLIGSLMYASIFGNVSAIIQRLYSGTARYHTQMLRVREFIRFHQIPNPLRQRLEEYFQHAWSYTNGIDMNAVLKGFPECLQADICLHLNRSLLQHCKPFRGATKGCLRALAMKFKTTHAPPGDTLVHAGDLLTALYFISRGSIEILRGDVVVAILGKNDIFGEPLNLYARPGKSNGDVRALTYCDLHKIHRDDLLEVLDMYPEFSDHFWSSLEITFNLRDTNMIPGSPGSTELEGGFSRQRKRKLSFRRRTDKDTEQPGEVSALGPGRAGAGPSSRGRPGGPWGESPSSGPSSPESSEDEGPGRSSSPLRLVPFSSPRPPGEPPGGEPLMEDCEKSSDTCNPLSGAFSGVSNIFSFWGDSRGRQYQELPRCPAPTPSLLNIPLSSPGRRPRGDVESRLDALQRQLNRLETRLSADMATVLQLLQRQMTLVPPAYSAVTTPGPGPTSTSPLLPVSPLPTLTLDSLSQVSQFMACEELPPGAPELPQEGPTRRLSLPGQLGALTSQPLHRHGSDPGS
Sequence of Mitogen-activated protein kinase 7 (Q13164 whole entry): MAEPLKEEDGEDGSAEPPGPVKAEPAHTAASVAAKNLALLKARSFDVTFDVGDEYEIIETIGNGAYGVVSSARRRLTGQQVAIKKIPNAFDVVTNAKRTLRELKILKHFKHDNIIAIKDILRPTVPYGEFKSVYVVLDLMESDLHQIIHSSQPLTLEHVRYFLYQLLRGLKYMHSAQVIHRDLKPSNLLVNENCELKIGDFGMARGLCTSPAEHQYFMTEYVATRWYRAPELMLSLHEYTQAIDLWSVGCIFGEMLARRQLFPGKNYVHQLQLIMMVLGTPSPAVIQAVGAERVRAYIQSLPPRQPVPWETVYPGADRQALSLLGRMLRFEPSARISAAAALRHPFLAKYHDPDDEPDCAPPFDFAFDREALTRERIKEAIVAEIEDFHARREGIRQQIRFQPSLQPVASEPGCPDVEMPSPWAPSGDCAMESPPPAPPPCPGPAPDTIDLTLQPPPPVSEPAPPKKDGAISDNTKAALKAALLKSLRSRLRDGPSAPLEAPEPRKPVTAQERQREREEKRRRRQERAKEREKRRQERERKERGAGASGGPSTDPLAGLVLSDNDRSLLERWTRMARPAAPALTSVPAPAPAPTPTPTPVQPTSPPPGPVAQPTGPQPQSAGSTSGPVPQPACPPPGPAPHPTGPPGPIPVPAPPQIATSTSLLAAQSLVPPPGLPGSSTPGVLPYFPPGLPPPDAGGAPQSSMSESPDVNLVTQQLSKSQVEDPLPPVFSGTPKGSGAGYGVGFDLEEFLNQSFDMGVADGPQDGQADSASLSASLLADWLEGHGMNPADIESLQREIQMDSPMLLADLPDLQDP
Sequence of CREB-binding protein (Q92793 whole entry, the tested form may be a part): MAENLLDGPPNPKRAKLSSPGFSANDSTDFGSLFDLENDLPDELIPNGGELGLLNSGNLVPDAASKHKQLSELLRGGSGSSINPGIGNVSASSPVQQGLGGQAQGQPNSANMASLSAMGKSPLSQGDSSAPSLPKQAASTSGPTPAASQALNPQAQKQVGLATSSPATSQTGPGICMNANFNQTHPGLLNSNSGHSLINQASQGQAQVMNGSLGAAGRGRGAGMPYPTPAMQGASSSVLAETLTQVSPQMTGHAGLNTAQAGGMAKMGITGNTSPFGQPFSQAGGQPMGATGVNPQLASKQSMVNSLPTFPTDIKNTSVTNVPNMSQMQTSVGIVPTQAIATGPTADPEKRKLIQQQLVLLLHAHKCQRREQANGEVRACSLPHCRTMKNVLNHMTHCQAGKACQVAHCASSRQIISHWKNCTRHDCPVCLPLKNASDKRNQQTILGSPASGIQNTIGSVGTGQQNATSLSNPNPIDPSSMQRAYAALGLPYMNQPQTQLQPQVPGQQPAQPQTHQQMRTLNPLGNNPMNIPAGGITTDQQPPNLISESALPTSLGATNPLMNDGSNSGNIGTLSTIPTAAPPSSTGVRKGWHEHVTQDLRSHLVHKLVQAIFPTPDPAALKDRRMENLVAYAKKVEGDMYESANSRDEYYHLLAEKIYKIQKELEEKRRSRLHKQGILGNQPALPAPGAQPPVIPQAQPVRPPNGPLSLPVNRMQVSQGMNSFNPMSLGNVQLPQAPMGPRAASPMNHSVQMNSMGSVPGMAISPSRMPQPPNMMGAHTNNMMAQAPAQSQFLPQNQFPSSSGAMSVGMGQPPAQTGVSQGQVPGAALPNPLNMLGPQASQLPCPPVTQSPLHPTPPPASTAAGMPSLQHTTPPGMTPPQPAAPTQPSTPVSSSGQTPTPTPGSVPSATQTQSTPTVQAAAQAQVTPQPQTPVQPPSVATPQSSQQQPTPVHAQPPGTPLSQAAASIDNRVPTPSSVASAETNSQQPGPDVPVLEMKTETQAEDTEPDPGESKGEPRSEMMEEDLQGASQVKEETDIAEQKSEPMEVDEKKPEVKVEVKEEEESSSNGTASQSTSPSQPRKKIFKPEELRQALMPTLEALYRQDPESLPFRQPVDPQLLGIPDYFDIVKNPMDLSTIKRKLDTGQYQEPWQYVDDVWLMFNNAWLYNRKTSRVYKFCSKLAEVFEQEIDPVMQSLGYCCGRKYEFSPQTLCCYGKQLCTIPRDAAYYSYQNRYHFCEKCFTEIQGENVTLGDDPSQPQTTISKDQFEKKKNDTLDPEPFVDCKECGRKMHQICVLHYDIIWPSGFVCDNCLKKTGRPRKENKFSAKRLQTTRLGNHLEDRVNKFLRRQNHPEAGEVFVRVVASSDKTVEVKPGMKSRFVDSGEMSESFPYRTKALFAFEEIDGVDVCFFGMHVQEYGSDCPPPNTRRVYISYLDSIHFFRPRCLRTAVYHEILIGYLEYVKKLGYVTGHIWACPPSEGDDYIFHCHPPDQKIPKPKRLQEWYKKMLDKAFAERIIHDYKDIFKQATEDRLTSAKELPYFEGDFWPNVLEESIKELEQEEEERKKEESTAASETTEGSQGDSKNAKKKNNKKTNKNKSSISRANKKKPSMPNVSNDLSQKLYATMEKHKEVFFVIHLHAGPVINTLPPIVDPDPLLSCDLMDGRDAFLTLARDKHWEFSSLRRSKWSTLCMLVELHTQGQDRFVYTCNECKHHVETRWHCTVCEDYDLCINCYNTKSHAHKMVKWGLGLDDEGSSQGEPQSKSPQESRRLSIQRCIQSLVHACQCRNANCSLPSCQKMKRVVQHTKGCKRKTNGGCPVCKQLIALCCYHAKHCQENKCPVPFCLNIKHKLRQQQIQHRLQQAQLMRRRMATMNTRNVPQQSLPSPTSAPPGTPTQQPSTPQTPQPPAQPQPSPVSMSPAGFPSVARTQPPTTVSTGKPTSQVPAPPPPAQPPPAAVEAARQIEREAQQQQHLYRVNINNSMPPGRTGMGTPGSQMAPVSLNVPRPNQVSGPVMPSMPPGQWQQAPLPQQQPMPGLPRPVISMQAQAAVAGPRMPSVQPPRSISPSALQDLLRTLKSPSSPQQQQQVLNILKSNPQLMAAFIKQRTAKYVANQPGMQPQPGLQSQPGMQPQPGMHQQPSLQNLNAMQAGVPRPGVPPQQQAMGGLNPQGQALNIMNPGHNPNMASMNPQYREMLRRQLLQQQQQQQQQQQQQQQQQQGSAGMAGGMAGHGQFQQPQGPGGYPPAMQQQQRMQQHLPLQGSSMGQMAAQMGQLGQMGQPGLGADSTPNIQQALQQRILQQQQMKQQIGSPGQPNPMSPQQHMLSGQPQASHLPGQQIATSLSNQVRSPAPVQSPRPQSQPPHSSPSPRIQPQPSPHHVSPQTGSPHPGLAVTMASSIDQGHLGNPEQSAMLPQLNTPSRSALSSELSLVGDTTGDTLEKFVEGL

| Structure (SMILES) | IC50 [1] [nM] | inhibition [2] | IC50 [3] [nM] | EC50 [4] [nM] | remaining at 1 h [5] [%] | IC50 [6] [nM] | inhibition [7] | Kd [8] [nM] | Kd [9] [nM] | Kd [10] [nM] | Activity [11] | Activity [12] |
| --- | --- | --- | --- | --- | --- | --- | --- | --- | --- | --- | --- | --- |
| COc1cccc2c1Oc1cc(N[C@H]3CC[C@H](O)CC3)ncc1N(C)C2=O | 2820 | Active | 1100 | 1380 | 85 | > 10000 | Active |  |  |  |  |  |
| CN1C(=O)c2ccccc2Oc2cc(N[C@H]3CC[C@H](O)CC3)ncc21 | 9370 | Active | 266 | 2700 | 97 | > 10000 | Active |  |  |  |  |  |
| CCNC(=O)C[C@@H]1N=C(c2ccc(Cl)cc2)c2cc(OC)ccc2-n2c(C)nnc21 [MOLIBRESIB] |  | Active |  |  |  |  | Active | 112 | 60 | 83000 |  |  |
| CCOc1cc([C@@H](CS(C)(=O)=O)N2C(=O)c3cccc(NC(C)=O)c3C2=O)ccc1OC |  |  |  |  |  |  |  |  |  |  | Non-Toxic | Active |
| CN1C(=O)c2ccccc2S(=O)(=O)c2cc(N[C@H]3CC[C@H](O)CC3)ncc21 | > 30000 | Active |  |  |  |  | Active |  |  |  |  |  |
| CN1C(=O)c2c(F)ccc(F)c2Oc2cc(N[C@H]3CC[C@H](O)CC3)ncc21 | 2010 | Active | 213 | 430 | 90 | > 10000 | Active |  |  |  |  |  |
| CN1C(=O)c2cccc(F)c2Oc2cc(N[C@H]3CC[C@H](O)CC3)ncc21 | 11200 | Active | 393 | 1720 | 114 | > 10000 | Active |  |  |  |  |  |
